Results from patent publication US20120129730A1, “GENERATION OF COMPOUND LIBRARIES UTILIZING MOLECULAR IMPRINTS INCLUDING A DOUBLE OR ANTI-IDIOTYPIC APPROACH” (KLAUS MOSBACH, priority 2001, published 2012).

Biological target: T1, tissue kallikrein (UniProt P00752)
T1 sequence (P00752 1-246): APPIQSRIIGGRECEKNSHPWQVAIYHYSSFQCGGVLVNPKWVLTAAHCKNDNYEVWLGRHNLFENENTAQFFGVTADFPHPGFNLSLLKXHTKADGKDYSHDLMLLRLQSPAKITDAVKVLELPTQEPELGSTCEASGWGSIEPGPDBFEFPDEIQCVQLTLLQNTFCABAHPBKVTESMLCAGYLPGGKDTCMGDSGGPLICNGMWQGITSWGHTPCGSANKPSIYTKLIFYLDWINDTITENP
Test: Determination of inhibition constants (Ki) for tissue kallikrein
Assay type: biochemical
Conditions: for Ki: literature method of Burton and Lowe, read-out: Ki, inhibition constant for tissue kallikrein
Description: Determination of Inhibition Constants (Ki) for Tissue Kallikrein
Inhibition constants of compounds 1, 2 and 3 for tissue kallikrein are determined according to the literature method described by Burton and Lowe. ^7 The results are listed in Table 4.

For `N=C(N)c1ccc(Nc2nc(Cl)nc(NCc3ccccc3)n2)cc1` [Compound 3], the Ki was 5.2 µM and the “inhibition efficacy compared with the original template (1)” value (tissue kallikrein inhibition, comparison in words) was “approximately the same inhibition efficacy as that of the original template (1)”.

Work on `N=C(N)c1ccc(Nc2nc(Cl)nc(Cl)n2)cc1` [2-(4-amidinophenylamino)-4,6-dichloro-s-triazine, reference compound] yielded a Ki of over 100 µM.
